Molecular target: P. falciparum 3D7A growth, LDH activity
Test: asexual P. falciparum growth inhibition, dose response, strain 3D7A, LDH readout (AID 2060598)

SMILES	IC50 (restricted media, 72 h)	IC50 (standard media with serum)
NC(=O)CC1CCN(C(=O)c2sc3sccc3c2Cl)CC1	316 nM	3160 nM
CCCOc1cncc(S(=O)(=O)c2ccc3c(c2)CCN(C2CCC2)CC3)c1	316 nM	3980 nM
O=C(/C=C/c1n[nH]c2ccccc12)Nc1ccc(C(=O)NCCN2CCOCC2)cc1	316 nM	3160 nM
O=C(CCCc1c[nH]c2ccccc12)N1CCN(c2ccc(N3CCOCC3)nn2)CC1	398 nM	5010 nM
O=C(Nc1cccnc1)C1CCN(c2ccc(-c3ccco3)nn2)CC1	794 nM	7940 nM
Cc1cccc(-c2nn(Cc3ccc(C(=O)NCCCO)cc3)c(=O)cc2N2CCCC(CO)C2)c1 (stereo unspecified)	794 nM	7940 nM
O=C(COc1ccc(Br)cc1F)N1CCN(c2cnccn2)CC1	251 nM	2510 nM
O=C(CCN=C1NS(=O)(=O)c2ccccc21)Nc1ccc(S(=O)(=O)N2CCCC2)cc1	794 nM	7940 nM
O=C1CSc2ccc(C(=O)Nc3ccc(-c4nnc5n4CCCCC5)cc3)cc2N1	501 nM	5010 nM
O=C1CCCN1c1ccc(S(=O)(=O)N2CCN(S(=O)(=O)c3ccccc3)CC2)cc1	501 nM	> 50100 nM
Cn1cccc1C1CCCN1CC(=O)Nc1ccc(S(=O)(=O)N2CCOCC2)cc1 (stereo unspecified)	794 nM	10000 nM
CCN(CC)c1ccc(C(=O)COc2ccc3c(c2)CCNCC3)cc1	63.1 nM	1000 nM
CC(C)Oc1ccc(-c2nnc(Oc3cccc4c3CCN(CCC(N)=O)CC4)s2)cc1C#N	501 nM	10000 nM
COc1ccc(NC(=O)c2ccc3c(=O)n(Cc4ccccn4)cnc3c2)cc1N1CCN(C)CC1	398 nM	3980 nM

Results, then the compound that gave them:

IC50 (restricted media, 72 h)	IC50 (standard media with serum)	SMILES
158 nM	2000 nM	O=C(CCCc1ncc(-c2ccccc2)o1)N1CCOC2CCCC21 (stereo unspecified)
200 nM	2510 nM	CCN(C(=O)C=Cc1ccc(S(=O)(=O)N2CCc3ccccc32)cc1)C1CCS(=O)(=O)C1 (stereo unspecified)
39.8 nM	398 nM	N#Cc1cccc(NC(=O)CNc2ccccc2C(=O)NC2CC2)c1
20 nM	200 nM	O=C(Nc1nnc(-c2ccccc2)s1)N1CCCN(c2ncccn2)CC1
63.1 nM	631 nM	Cc1nn(C2CCS(=O)(=O)C2)c(C)c1CN(C)C(=O)CN1C(=O)NC2(CCCCC2C)C1=O (stereo unspecified)
31.6 nM	501 nM	Cc1ccc2nc(CCNC(=O)CCS(=O)(=O)c3ccc4c(c3)CC(=O)N4C)[nH]c2c1
79.4 nM	2000 nM	O=C(Nc1ccc(N2CCCC2)nc1)N1CCN(c2cnccn2)CC1
251 nM	3980 nM	CN(C(=O)C[C@@H]1CCN(C(=O)C2CC2)C1)c1ccc(-c2ccc(C#N)cc2)cc1
63.1 nM	631 nM	COc1ccc(-c2ccc(CNC(=O)c3cc(C(=O)NC(C)C)ccc3Cl)cc2)cn1
79.4 nM	1000 nM	COc1ccc(N2CCN(C(=O)c3csc(Nc4ccccc4S(C)(=O)=O)n3)CC2)nc1
31.6 nM	316 nM	O=C(c1cc2ccccc2[nH]1)N1CCC2(CC(Nc3ccncn3)C2)C1 (stereo unspecified)
20 nM	316 nM	Cc1cc(Cl)ccc1OCC(=O)N1CCc2c(cnc(C)c2CNC(=O)c2ccc(=O)[nH]n2)C1
126 nM	1260 nM	COc1ccc2oc(C(=O)NC3CCC(Oc4ncccn4)CC3)cc2c1 (stereo unspecified)
50.1 nM	631 nM	N#Cc1c(N)n[nH]c1CCCNC(=O)c1ccc(Cl)c(S(=O)(=O)N2CCCC2)c1
100 nM	1580 nM	Cc1cc(-c2cnc(N3CCn4c(nnc4C4CC4)C3)nc2-c2ccncc2)on1
126 nM	1580 nM	COc1ccc(C(=O)N2CCN(c3ccc(-n4cccn4)nn3)CC2)cc1OC
126 nM	1260 nM	O=C(CCn1nnc2cc(S(=O)(=O)N3CCCC3)ccc21)N1CCN(c2ccccn2)CC1
158 nM	2000 nM	O=C(/C=C/c1n[nH]c2ccccc12)N1CCN(c2cnccn2)CC1
63.1 nM	794 nM	O=C(NCCCN1CCc2ccccc21)c1ccc2c(=O)n(Cc3ccccn3)cnc2c1
